Measurements published in publication PMC3967790 (Journal of pharmaceutical sciences, 2013).
Converted amounts (≈) assume the structure as drawn. Where two headings read alike, the source gives them in different places.

Columns and labels:
[1] = Equilibrium solubility of elacridar in microemulsion components; format: physicochemical; details: 37 °C, oil or lipid, thermodynamic from solid
[2] = mouse, cited from earlier work
[3] = FVB, mouse, brain, oral, 20 mg/kg

Row | solubility at 24 h ([1]; Captex 300 (oil)) | solubility at 24 h ([1]; Captex 355 (oil)) | concentration at 1 h [3] | SMILES | bioavailability ([2]; intraperitoneal dose, suspension) | bioavailability ([2]; oral dose, suspension at 100 mg/kg)
1 | 300 ± 1 µg/mL (≈ 532 µM) | 300 ± 1 µg/mL (≈ 532 µM) |  | COc1cc2c(cc1OC)CN(CCc1ccc(NC(=O)c3cccc4c(=O)c5cccc(OC)c5[nH]c34)cc1)CC2 [elacridar, N-(4-(2-(1,2,3,4-tetrahydro-6,7-dimethoxy-2-isoquinolinyl)ethyl)phenyl)-9,10-dihydro-5-methoxy-9-oxo-4-acridine carboxamide] | ~1% | about 22%
2 |  |  | 76.4 ± 7.8 ng/mL | C#Cc1cccc(Nc2ncnc3cc(OCCOC)c(OCCOC)cc23)c1 [erlotinib] |  | 
